Results on one compound are retold here after ChEMBL document CHEMBL1156865, “Chemical delivery system of metaiodobenzylguanidine (MIBG) to the central nervous system” (J Med Chem, 2010).

Structures are written as SMILES. Where only a bound is given, the exact number is not on record here.

Data set [1] relates to Brain. As to the kind of experiment: Drug uptake in Sprague-Dawley rat brain at 15 to 120 MBq, iv after 3 mins. In kind it is ADME, organism-based. The settings on record: in vivo, 0.05 h.
Data set [2] has as its system Brain. The data set is described as follows: Stability in Sprague-Dawley rat brain assessed as polar radioactive metabolite level at 15 to 120 MBq, iv after 3 mins. The settings on record: in vivo, 0.05 h. In kind it is ADME, organism-based.
For data set [3], the system named is Brain. The data set is described as follows: Drug uptake in Sprague-Dawley rat brain at 15 to 120 MBq, iv after 60 mins. In kind it is ADME, organism-based. The settings on record: in vivo, 1 h.
A short description of data set [4]: Stability in Sprague-Dawley rat brain assessed as unchanged parent compound level at 15 to 120 MBq, iv after 3 mins. In kind it is ADME, organism-based. The note with it: read-out: Stability.
Data set [5] is described as follows: Stability in Sprague-Dawley rat brain assessed as unchanged parent compound level at 15 to 120 MBq, iv after 60 mins. It is filed as ADME, organism-based. The settings on record: read-out: Stability.
Data set [6] concerns Brain. As to the kind of experiment: Stability in Sprague-Dawley rat brain assessed as polar radioactive metabolite level at 15 to 120 MBq, iv after 60 mins. In kind it is ADME, organism-based. The note with it: in vivo, 1 h.
A short description of data set [7]: Stability in Sprague-Dawley rat blood at 10 MBq assessed as radioactive compound recovery. In kind it is ADME, tissue-based. The settings on record: whole blood, read-out: Stability.

On to `[11CH3]N1C=C(C(=O)NC(=N)NCc2cccc(I)c2)Cc2ccccc21`, for which the Drug uptake in data set [1] is reported as 0.1 % ID/g; in data set [3], 0.06 % ID/g. The Activity in data set [2] worked out at 4%; in data set [6], 41%. In addition, the remaining at 0.05 h in data set [4] came to 96%. The remaining at 1 h in data set [5] is 59%. In data set [7], the remaining at 10 MBq was more than 90%.
